Results published in ChEMBL document CHEMBL1133805, “Discovery and initial structure-activity relationships of trisubstituted ureas as thrombin receptor (PAR-1) antagonists” (Bioorg Med Chem Lett, 2001).
Where a SMILES comes first, the peptide text is derived from it. [ ]: non-standard residue; d: D form. The star is where a group is joined. Phe(4-guanidino) = N=C(N)Nc1ccc(C[C@H](N)C(=O)O)cc1; Phe(4-F) = N[C@@H](Cc1ccc(F)cc1)C(=O)O; Orn = NCCC[C@H](N)C(=O)O; X1 = O=C(/C=C/c1ccccc1)*; Propionyl = CCC(=O)*

How the values were obtained:
Homo sapiens = organism: Homo sapiens; assay: Inhibitory concentration against TRAP-stimulated secretion of 3H serotonin from human platelets; format: functional
[1] = target: T1, Proteinase-activated receptor 1 (Homo sapiens, UniProt P25116); assay: Binding affinity against platelet thrombin receptor
T1 sequence (P25116 whole entry): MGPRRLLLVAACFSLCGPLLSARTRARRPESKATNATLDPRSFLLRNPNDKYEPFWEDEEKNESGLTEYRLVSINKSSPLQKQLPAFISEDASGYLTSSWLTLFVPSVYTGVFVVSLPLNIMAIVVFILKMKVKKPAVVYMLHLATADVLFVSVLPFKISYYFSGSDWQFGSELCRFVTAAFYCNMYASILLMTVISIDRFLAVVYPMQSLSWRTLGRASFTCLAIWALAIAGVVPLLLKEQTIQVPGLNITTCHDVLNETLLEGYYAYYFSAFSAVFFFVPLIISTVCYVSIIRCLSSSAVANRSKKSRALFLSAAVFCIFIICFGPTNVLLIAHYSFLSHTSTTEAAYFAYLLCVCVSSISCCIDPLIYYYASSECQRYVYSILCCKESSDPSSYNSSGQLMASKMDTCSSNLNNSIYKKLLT

[2] = Inhibitory activity against ADP or collagen induced platelet activation; format: functional
[3] = Inhibitory activity against thrombin's catalytic activity was determined; format: functional

Row | SMILES | IC50 (Homo sapiens) [µM] | other results
1 | CC(C)(C)C(=O)NCc1ccc(NC(=O)N2CCC[C@@H]2[C@@H](O)c2ccc(Cl)c(Cl)c2)cc1 | > 10 | 
2 | CC(C)(C)C(=O)NCc1ccc(NC(=O)N2CCC[C@H]2[C@H](O)c2ccc(Cl)c(Cl)c2)cc1 | > 10 | 
3 | CC(C)(C)C(=O)NCc1ccc(NC(=O)N(CC(O)c2cccc(Cl)c2Cl)C2CCC2)cc1 (stereo not given) | > 10 | 
4 | CC(C)N(C[C@@H](O)c1ccc(Cl)c(Cl)c1)C(=O)Nc1ccc(CNC(=O)C(C)(C)C)cc1 | 0.7 | IC50 [1]: 0.7 µM
5 | CC(C)(C)C(=O)NCc1ccc(NC(=O)N(CC(O)c2ccc(C#N)cc2)C2CCC2)cc1 (stereo not given) | 6 | 
6 | CC(C)N(C[C@@H](O)c1ccc(Cl)c(Cl)c1)C(=O)Nc1ccc(NC(=O)c2ccc(F)cc2F)cc1 | > 10 | 
7 | CC(C)N(C[C@@H](O)c1ccc(Cl)c(Cl)c1)C(=O)Nc1ccc(NC(=O)C(C)(C)C)cc1 | > 10 | 
8 | C[C@@H]1CC[C@@H]([C@@H](O)c2ccc(Cl)c(Cl)c2)N1C(=O)Nc1ccc(CNC(=O)C(C)(C)C)cc1 | > 10 | 
9 | CC(C)(C)C(=O)NCc1ccc(NC(=O)N(CC(O)c2ccc(F)c(F)c2)C2CCC2)cc1 (stereo not given) | 10 | 
10 | CC(C)(C)C(=O)NCc1ccc(NC(=O)N2CCCC[C@H]2[C@H](O)c2ccc(Cl)c(Cl)c2)cc1 | > 10 | 
11 | CCCN(C[C@@H](O)c1ccc(Cl)c(Cl)c1)C(=O)Nc1ccc(CNC(=O)C(C)(C)C)cc1 | 1.1 | 
12 | CC(C)(C)C(=O)NCc1ccc(NC(=O)NC[C@@H](O)c2ccc(Cl)c(Cl)c2)cc1 | > 40 | 
13 | CC(C)N(C[C@@H](O)c1ccc(Cl)c(Cl)c1)C(=O)Nc1ccc(CCNC(=O)c2ccc(S(N)(=O)=O)cc2)cc1 | 0.7 | 
14 | CC(C)N(C[C@@H](O)c1ccc(Cl)c(Cl)c1)C(=O)Nc1ccc(CNC(=O)C(C)(C)N)cc1 | 1 | 
15 | CC(C)(C)C(=O)NCc1ccc(NC(=O)N2C[S+]([O-])C[C@@H]2[C@@H](O)c2ccc(Cl)c(Cl)c2)cc1 (stereo not given in full) | > 10 | 
16 | CC(C)(C)C(=O)NCc1ccc(NC(=O)N2CCC[C@@H]2[C@H](O)c2ccc(Cl)c(Cl)c2)cc1 | > 10 | 
17 | CC(C)(C)C(=O)NCc1ccc(NC(=O)N(CC(O)c2ccc(Cl)cc2Cl)C2CCC2)cc1 (stereo not given) | 10 | 
18 | CC(C)(C)C(=O)NCc1ccc(NC(=O)N(C[C@@H](O)c2ccc(Cl)c(Cl)c2)C2CC2)cc1 | 6.7 | IC50 [1]: 2.1 µM
19 | CC(C)N(C[C@@H](O)c1ccc(Cl)c(Cl)c1)C(=O)Nc1ccc(CNC(=O)c2cccnc2)cc1 | 0.7 | 

Row | SMILES | IC50 (Homo sapiens) [µM] | other results
20 | CCCCN(C[C@@H](O)c1ccc(Cl)c(Cl)c1)C(=O)Nc1ccc(CNC(=O)C(C)(C)C)cc1 | > 10 | 
21 | CC(C)(C)C(=O)NCc1ccc(NC(=O)N(CC(O)c2ccc(Br)c(Br)c2)C2CCC2)cc1 (stereo not given) | 1 | 
22 | O=C1N(C[C@@H](O)c2ccc(Cl)c(Cl)c2)CCN1c1ccccc1 | > 100 | 
23 | CC(C)N(C[C@@H](O)c1ccc(Cl)c(Cl)c1)C(=O)Nc1ccc(CNC(=O)Nc2ccc(CNC(N)=O)cc2)cc1 | 0.6 | 
24 | CC(C)N(C[C@@H](O)c1ccc(Cl)c(Cl)c1)C(=O)Nc1ccc(NC(=O)c2ccc(S(N)(=O)=O)cc2)cc1 | 1 | 
25 | CCN(C[C@@H](O)c1ccc(Cl)c(Cl)c1)C(=O)Nc1ccc(CNC(=O)C(C)(C)C)cc1 | 3.8 | 
26 | CC[C@H](C)N(C[C@@H](O)c1ccc(Cl)c(Cl)c1)C(=O)Nc1ccc(CNC(=O)C(C)(C)C)cc1 | 0.4 | 
27 | CC(C)CN(C[C@@H](O)c1ccc(Cl)c(Cl)c1)C(=O)Nc1ccc(CNC(=O)C(C)(C)C)cc1 | > 10 | 
28 | CC(C)N(C[C@@H](O)c1ccc(Cl)c(Cl)c1)C(=O)Nc1ccc(CNC(=O)c2ccc(S(N)(=O)=O)cc2)cc1 | 0.85 | IC50 [1]: 1.2 µM
29 | CC[C@@H](C)N(C[C@@H](O)c1ccc(Cl)c(Cl)c1)C(=O)Nc1ccc(CNC(=O)C(C)(C)C)cc1 | 0.23 | IC50 [1]: 0.12 µM; IC50 [2]: > 10 µM; Ki [3]: > 10 µM
30 | Cc1ccc(C(O)CN(C(=O)Nc2ccc(CNC(=O)C(C)(C)C)cc2)C2CCC2)cc1C (stereo not given) | > 10 | 
31 | CC(C)(C)C(=O)NCc1ccc(NC(=O)N(CC(O)c2ccc(Cl)c(Cl)c2)C2CCC2)cc1 (stereo not given) | 0.23 | 
32 | CN(C[C@@H](O)c1ccc(Cl)c(Cl)c1)C(=O)Nc1ccc(CNC(=O)C(C)(C)C)cc1 | 40 | IC50 [1]: 6.6 µM
33 | CC(C)(C)C(=O)NCc1ccc(NC(=O)N(C[C@@H](O)c2ccc(Cl)c(Cl)c2)c2ccccc2)cc1 | > 10 | 
34 | CC(C)N(C[C@@H](O)c1ccc(Cl)c(Cl)c1)C(=O)Nc1ccc(CCNC(=O)C(C)(C)C)cc1 | > 10 | 
35 | CCCC(C)N(C[C@@H](O)c1ccc(Cl)c(Cl)c1)C(=O)Nc1ccc(CNC(=O)C(C)(C)C)cc1 (stereo not given in full) | 1 | 
36 | CC(C)N(C[C@@H](O)c1ccc(Cl)c(Cl)c1)C(=O)Nc1ccc(NC(=O)c2cccc3[nH]cnc23)cc1 | 1 | 
37 | CC(C)(C)C(=O)NCc1ccc(NC(=O)N(C[C@@H](O)c2ccc(Cl)c(Cl)c2)C(C)(C)C)cc1 | 1.7 | 
38 | CC(C)(C)C(=O)NCc1ccc(NC(=O)N2CCCC(O)(c3ccc(Cl)c(Cl)c3)C2)cc1 (stereo not given) | 0.5 | 

Row | SMILES | IC50 (Homo sapiens) [µM] | other results
39 | CC(C)N1CC(c2ccc(Cl)c(Cl)c2)CN(c2ccc(CNC(=O)C(C)(C)C)cc2)C1=O (stereo not given) | > 10 | 
40 | CC(C)(C)C(=O)NCc1ccc(NC(=O)N2CSC[C@@H]2[C@@H](O)c2ccc(Cl)c(Cl)c2)cc1 | 2.5 | 
41 | CC(C)(C)C(=O)NCc1ccc(NC(=O)N2CCC[C@H]2[C@@H](O)c2ccc(Cl)c(Cl)c2)cc1 | 1.5 | IC50 [1]: 1.1 µM
42 | CC(C)N(C[C@@H](O)c1ccc(Cl)c(Cl)c1)C(=O)Nc1ccc(CCNC(=O)c2cccnc2)cc1 | 1.4 | 
43 | CC(C)N(C[C@@H](O)c1ccc(Cl)c(Cl)c1)C(=O)Nc1ccc(CNC(=O)c2cccc3[nH]cnc23)cc1 | 0.45 | 
44 | CC(C)(C)C(=O)NCc1ccc(NC(=O)N(C[C@@H](O)c2ccc(Cl)c(Cl)c2)C2CCCC2)cc1 | > 10 | 
45 | CC(C)N(C[C@@H](O)c1ccc(Cl)c(Cl)c1)C(=O)Nc1ccc(CCNC(=O)c2ccc(F)cc2F)cc1 | > 10 | 
46 | CC(C)N(C[C@@H](O)c1ccc(Cl)c(Cl)c1)C(=O)Nc1ccc(CNC(=O)c2ccc(F)cc2F)cc1 | 0.9 | 
47 | C[C@H]1CC[C@@H]([C@@H](O)c2ccc(Cl)c(Cl)c2)N1C(=O)Nc1ccc(CNC(=O)C(C)(C)C)cc1 | 0.4 | IC50 [1]: 1 µM
48 | CC(C)N(C[C@@H](O)c1ccc(Cl)c(Cl)c1)C(=O)Nc1ccc(CCNC(=O)c2cccc3[nH]cnc23)cc1 | 0.36 | 
49 | CC(C)(C)C(=O)NCc1ccc(NC(=O)N2CCCC[C@H]2[C@@H](O)c2ccc(Cl)c(Cl)c2)cc1 | 4.3 | 
50 | CC(C)(C)C(=O)NCc1ccc(NC(=O)N2CCOC(c3ccc(Cl)c(Cl)c3)C2)cc1 (stereo not given) | > 40 | 
51 | CC(C)(C)C(=O)NCc1ccc(NC(=O)N(CC(O)c2cc(Cl)cc(Cl)c2)C2CCC2)cc1 (stereo not given) | > 10 | 
52 | CC[C@H]1CC[C@@H]([C@@H](O)c2ccc(Cl)c(Cl)c2)N1C(=O)Nc1ccc(CNC(=O)C(C)(C)C)cc1 | 0.7 | 
53 | CC(C)(C)C(=O)NCc1ccc(NC(=O)N2CCC(O)(c3ccc(Cl)c(Cl)c3)C2)cc1 (stereo not given) | > 40 | 
54 | CC(C)(C)C(=O)NCc1ccc(NC(=O)N(CC(O)c2cccc(C#N)c2)C2CCC2)cc1 (stereo not given) | > 10 | 
55 | CCC(=O)NCCC[C@H](NC(=O)[C@H](CCCN=C(N)N)NC(=O)[C@H](CC(C)C)NC(=O)[C@H](Cc1ccc(NC(=N)N)cc1)NC(=O)[C@H](Cc1ccc(F)cc1)NC(=O)/C=C/c1ccccc1)C(N)=O (X1-[Phe(4-F)][Phe(4-guanidino)]LR[Orn](Propionyl)-NH2) | 0.12 | 
56 | CC(C)C[C@H](NC(=O)[C@H](Cc1ccc(NC(=N)N)cc1)NC(=O)[C@H](Cc1ccc(F)cc1)NC(=O)/C=C/c1ccccc1)C(=O)N[C@@H](CCCN=C(N)N)C(=O)N[C@@H](CCCN)C(N)=O (X1-[Phe(4-F)][Phe(4-guanidino)]LR[Orn]-NH2) | 0.054 | 
